Assay results: ChEMBL document CHEMBL1909046, “DrugMatrix in vitro pharmacology data”

What was measured:
[1] = molecular target: 5-hydroxytryptamine receptor 1B (Rattus norvegicus, UniProt P28564); format: cell membranes, Wistar, Cerebral cortex, Membrane; further: in other assays of this panel Not Active means under 50% inhibition at 10 µM
[2] = DRUGMATRIX: Serotonin (5-Hydroxytryptamine) 5-HT3 radioligand binding (ligand: [3H] GR-65630); format: cell membranes, Membrane; details: hek293; Not Active = under 50% inhibition at 10 µM
[3] = molecular target: T1, Alpha-2A adrenergic receptor (Homo sapiens, UniProt P08913); format: cell membranes, Sf9, Membrane; further: in other assays of this panel Not Active means under 50% inhibition at 10 µM
T1 sequence (P08913 whole entry): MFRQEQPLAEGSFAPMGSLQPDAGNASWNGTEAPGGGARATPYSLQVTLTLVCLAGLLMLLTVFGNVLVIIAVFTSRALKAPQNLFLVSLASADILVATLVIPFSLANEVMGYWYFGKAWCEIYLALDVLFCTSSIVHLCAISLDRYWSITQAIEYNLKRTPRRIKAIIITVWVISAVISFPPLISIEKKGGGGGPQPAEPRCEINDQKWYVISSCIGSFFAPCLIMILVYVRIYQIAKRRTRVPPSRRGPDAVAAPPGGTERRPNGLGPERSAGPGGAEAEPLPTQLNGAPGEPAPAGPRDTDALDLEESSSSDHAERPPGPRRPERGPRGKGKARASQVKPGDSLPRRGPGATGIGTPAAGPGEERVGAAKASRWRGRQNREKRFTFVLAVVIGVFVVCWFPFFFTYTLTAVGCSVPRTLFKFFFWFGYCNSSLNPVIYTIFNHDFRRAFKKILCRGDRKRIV

[4] = molecular target: 5-hydroxytryptamine receptor 2B (Homo sapiens, UniProt P41595); format: cell membranes, CHO-K1, Membrane; further: in other assays of this panel Not Active means under 50% inhibition at 10 µM
[5] = molecular target: T2, Nitric oxide synthase, inducible (Mus musculus, UniProt P29477); parameters: species or system Escherichia coli;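 further: inhibition of iNOS enzyme activity measured with L-arginine as substrate; in other assays of this panel Not Active means under 50% inhibition at 10 µM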
T2 sequence (P29477 whole entry): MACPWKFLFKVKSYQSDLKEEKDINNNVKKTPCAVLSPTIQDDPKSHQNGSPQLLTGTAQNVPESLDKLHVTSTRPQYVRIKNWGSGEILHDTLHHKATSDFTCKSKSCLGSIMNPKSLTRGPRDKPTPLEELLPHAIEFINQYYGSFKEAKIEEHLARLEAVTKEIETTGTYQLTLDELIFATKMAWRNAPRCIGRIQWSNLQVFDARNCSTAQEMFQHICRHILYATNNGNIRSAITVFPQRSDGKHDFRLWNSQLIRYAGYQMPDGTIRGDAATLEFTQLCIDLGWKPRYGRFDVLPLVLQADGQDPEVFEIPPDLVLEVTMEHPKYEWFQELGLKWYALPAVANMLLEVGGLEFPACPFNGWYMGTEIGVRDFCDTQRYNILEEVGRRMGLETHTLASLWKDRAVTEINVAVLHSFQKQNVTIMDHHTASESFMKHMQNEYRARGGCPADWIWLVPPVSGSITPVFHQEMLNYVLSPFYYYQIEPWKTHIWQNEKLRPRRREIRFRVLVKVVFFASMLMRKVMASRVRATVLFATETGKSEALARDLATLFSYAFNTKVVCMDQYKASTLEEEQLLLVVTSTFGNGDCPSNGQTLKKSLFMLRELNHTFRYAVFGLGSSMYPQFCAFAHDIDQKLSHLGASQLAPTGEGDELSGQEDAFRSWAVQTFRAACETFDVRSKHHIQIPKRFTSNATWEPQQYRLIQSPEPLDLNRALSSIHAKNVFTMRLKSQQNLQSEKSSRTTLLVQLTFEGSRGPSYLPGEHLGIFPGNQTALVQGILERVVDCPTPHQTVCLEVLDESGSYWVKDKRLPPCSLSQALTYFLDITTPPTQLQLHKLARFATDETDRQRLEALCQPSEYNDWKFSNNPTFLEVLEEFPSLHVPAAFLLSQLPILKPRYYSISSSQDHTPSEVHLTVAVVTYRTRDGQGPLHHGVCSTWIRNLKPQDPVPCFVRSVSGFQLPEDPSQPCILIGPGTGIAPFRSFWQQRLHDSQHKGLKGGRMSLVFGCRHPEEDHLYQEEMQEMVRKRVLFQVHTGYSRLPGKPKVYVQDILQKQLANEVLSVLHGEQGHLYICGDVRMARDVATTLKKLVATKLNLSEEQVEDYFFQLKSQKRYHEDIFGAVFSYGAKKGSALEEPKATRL

[6] = molecular target: T3, 3-hydroxy-3-methylglutaryl-coenzyme A reductase (Homo sapiens, UniProt P04035); parameters: species or system Escherichia coli
T3 sequence (P04035 whole entry): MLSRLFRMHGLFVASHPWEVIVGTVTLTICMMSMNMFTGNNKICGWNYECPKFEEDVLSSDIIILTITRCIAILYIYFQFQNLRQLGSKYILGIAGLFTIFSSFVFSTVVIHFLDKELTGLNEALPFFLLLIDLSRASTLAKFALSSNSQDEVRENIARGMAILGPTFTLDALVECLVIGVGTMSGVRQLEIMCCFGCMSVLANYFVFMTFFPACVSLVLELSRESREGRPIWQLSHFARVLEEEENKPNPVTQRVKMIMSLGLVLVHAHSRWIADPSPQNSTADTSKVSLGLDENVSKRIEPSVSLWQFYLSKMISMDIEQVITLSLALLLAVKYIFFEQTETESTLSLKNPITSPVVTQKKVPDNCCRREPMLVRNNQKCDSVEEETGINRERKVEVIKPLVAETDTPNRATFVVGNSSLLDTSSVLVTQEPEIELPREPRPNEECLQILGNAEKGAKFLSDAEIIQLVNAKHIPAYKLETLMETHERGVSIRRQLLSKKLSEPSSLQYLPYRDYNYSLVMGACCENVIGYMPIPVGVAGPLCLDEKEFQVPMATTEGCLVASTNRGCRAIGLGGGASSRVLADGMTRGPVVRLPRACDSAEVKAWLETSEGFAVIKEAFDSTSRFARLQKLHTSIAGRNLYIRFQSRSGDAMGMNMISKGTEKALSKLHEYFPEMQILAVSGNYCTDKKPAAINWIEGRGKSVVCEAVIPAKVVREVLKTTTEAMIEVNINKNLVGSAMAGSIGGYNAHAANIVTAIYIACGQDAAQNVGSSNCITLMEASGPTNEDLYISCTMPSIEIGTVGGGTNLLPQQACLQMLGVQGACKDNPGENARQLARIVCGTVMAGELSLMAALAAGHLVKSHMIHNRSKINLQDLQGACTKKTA

Chain of 5-hydroxytryptamine receptor 1B (P28564 whole entry): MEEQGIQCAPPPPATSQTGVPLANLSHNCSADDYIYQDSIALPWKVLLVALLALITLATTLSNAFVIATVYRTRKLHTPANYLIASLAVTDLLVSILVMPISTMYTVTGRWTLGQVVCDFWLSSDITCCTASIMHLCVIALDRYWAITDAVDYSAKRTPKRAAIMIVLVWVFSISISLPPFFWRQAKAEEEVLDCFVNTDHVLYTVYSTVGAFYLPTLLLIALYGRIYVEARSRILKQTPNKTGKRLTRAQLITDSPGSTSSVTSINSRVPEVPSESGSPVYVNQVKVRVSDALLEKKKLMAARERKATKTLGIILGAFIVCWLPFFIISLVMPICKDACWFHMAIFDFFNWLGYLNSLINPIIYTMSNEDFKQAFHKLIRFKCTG
Chain of 5-hydroxytryptamine receptor 2B (P41595 whole entry): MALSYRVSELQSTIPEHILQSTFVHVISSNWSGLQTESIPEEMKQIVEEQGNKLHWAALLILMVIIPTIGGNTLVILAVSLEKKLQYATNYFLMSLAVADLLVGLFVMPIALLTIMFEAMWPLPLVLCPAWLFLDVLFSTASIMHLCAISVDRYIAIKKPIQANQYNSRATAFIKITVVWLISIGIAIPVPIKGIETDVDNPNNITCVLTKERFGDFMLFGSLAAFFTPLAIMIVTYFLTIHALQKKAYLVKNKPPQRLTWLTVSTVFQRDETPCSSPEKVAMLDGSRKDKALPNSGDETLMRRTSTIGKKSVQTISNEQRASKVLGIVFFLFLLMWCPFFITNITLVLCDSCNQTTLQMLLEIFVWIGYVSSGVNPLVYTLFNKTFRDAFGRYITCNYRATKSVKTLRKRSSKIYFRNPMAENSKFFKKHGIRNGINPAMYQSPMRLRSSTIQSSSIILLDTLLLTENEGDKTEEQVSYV

Row | Compound | IC50 [1] | IC50 [2] | Ki [2] | IC50 ([3]; sf9) | IC50 ([4]; cho-k1) | IC50 [5] | IC50 [6] | IC50 ([1]; read-out: IC50) | Ki ([1]; read-out: Ki) | IC50 ([3]; read-out: IC50) | Ki ([3]; read-out: Ki) | IC50 ([4]; read-out: IC50) | Ki ([4]; read-out: Ki) | Ki [1] | Ki ([3]; sf9) | Ki ([4]; cho-k1) | Ki [5] | Ki [6]
1 | O=C(c1ccccc1F)N1CCC(Cc2ccccc2)CC1 | Not Active | Not Active | Not Active | Not Active | Not Active | Not Active | Not Active |  |  |  |  |  |  |  |  |  |  | 
2 | COc1cc(OC)c(C(=O)CCCN2CCCC2)c(OC)c1 [BUFLOMEDIL] | Not Active | Not Active | Not Active | Not Active | Not Active | Not Active | Not Active |  |  |  |  |  |  |  |  |  |  | 
3 | COC(=O)Nc1nc2cc(C(=O)c3ccc(F)cc3)ccc2[nH]1 [FLUBENDAZOLE] | Not Active | Not Active | Not Active | Not Active | Not Active | Not Active | Not Active |  |  |  |  |  |  |  |  |  |  | 
4 | COc1ccnc(C[S+]([O-])c2nc3ccc(OC(F)F)cc3[nH]2)c1OC (stereo unspecified) [PANTOPRAZOLE] | Not Active | Not Active | Not Active | Not Active | Not Active | Not Active | Not Active |  |  |  |  |  |  |  |  |  |  | 
5 | CCc1ccc(CCOc2ccc(CC3SC(=O)NC3=O)cc2)nc1 (stereo unspecified) [PIOGLITAZONE] | Not Active | Not Active | Not Active | Not Active | Not Active | Not Active | Not Active |  |  |  |  |  |  |  |  |  |  | 
6 | CC[C@H]1[C@@H]2C[C@H]3[C@@H]4N(C)c5ccccc5[C@]45C[C@@H]([C@@H]2[C@H]5O)N3[C@@H]1O [AJMALINE] | Not Active | Not Active | Not Active | Not Active | Not Active | Not Active | Not Active |  |  |  |  |  |  |  |  |  |  | 
7 | CNC1=Nc2ccc(Cl)cc2C(c2ccccc2)=[N+]([O-])C1 [CHLORDIAZEPOXIDE] | Not Active | Not Active | Not Active | Not Active | Not Active | Not Active | Not Active |  |  |  |  |  |  |  |  |  |  | 
8 | C[C@@H]1O[C@@H](O[C@H]2C[C@@H](O)[C@]3(CO)[C@H]4[C@H](O)C[C@]5(C)[C@@H](C6=CC(=O)OC6)CC[C@]5(O)[C@@H]4CC[C@]3(O)C2)[C@H](O)[C@H](O)[C@H]1O [OUABAIN] | Not Active | Not Active | Not Active | Not Active | Not Active | Not Active | Not Active |  |  |  |  |  |  |  |  |  |  | 
9 | Cc1cccc(C)c1NC(=O)C1CCCCN1C (stereo unspecified) [MEPIVACAINE] | Not Active | Not Active | Not Active | Not Active | Not Active | Not Active | Not Active |  |  |  |  |  |  |  |  |  |  | 
10 | CC1=NN(c2ccccc2)C(=O)C1 [EDARAVONE] | Not Active | Not Active | Not Active | Not Active | Not Active | Not Active | Not Active |  |  |  |  |  |  |  |  |  |  | 
11 | CC(C)C[C@H]1C(=O)N2CCC[C@H]2[C@]2(O)O[C@](NC(=O)[C@@H]3C=C4c5cccc6[nH]cc(c56)C[C@H]4N(C)C3)(C(C)C)C(=O)N12 [ERGOCRYPTINE] |  | Not Active | Not Active |  |  | Not Active | Not Active | 8.2 nM | 5.02 nM | 7.95 nM | 2.98 nM | 13 nM | 8.22 nM |  |  |  |  | 
12 | Cc1cc(O)cc(C)c1Cl [CHLOROXYLENOL] | Not Active | Not Active | Not Active | Not Active |  | Not Active | Not Active |  |  |  |  | 1860 nM | 1180 nM |  |  |  |  | 
13 | CCOC(=O)c1ncn2c1CN(C)C(=O)c1cc(F)ccc1-2 [FLUMAZENIL] | Not Active | Not Active | Not Active | Not Active | Not Active | Not Active | Not Active |  |  |  |  |  |  |  |  |  |  | 
14 | COBALTOUS CHLORIDE | Not Active | Not Active | Not Active | Not Active | Not Active | Not Active | Not Active |  |  |  |  |  |  | Not Active | Not Active | Not Active | Not Active | Not Active
15 | COc1ccc2c(c1OC)C(=O)O[C@@H]2[C@H]1c2c(cc3c(c2OC)OCO3)CCN1C [NOSCAPINE] | Not Active | Not Active | Not Active | Not Active | Not Active | Not Active | Not Active |  |  |  |  |  |  |  |  |  |  | 
16 | COLISTIN | Not Active | Not Active | Not Active | Not Active | Not Active | Not Active | Not Active |  |  |  |  |  |  | Not Active | Not Active | Not Active | Not Active | Not Active
17 | CCN(C(C)=O)c1cccc(-c2ccnc3c(C#N)cnn23)c1 [ZALEPLON] | Not Active | Not Active | Not Active | Not Active | Not Active | Not Active | Not Active |  |  |  |  |  |  |  |  |  |  | 
18 | CN1C(=O)CN=C(c2ccccc2)c2cc([N+](=O)[O-])ccc21 [NIMETAZEPAM] | Not Active | Not Active | Not Active | Not Active | Not Active | Not Active | Not Active |  |  |  |  |  |  |  |  |  |  | 
19 | C[C@@H]1C/C=C/C=C/C=C/C=C/[C@H](O[C@@H]2O[C@H](C)[C@@H](O)[C@H](N)[C@@H]2O)C[C@@H]2O[C@](O)(C[C@@H](O)C[C@H]3O[C@@H]3/C=C/C(=O)O1)C[C@H](O)[C@H]2C(=O)O [NATAMYCIN] | Not Active | Not Active | Not Active | Not Active | Not Active | Not Active | Not Active |  |  |  |  |  |  |  |  |  |  | 
20 | ClC(Cl)(Cl)Cl [CARBON TETRACHLORIDE] | Not Active | Not Active | Not Active | Not Active | Not Active | Not Active | Not Active |  |  |  |  |  |  |  |  |  |  | 
21 | NC12CC3CC(CC(C3)C1)C2 [AMANTADINE] | Not Active | Not Active | Not Active | Not Active | Not Active | Not Active | Not Active |  |  |  |  |  |  |  |  |  |  | 
